Measurements taken from patent US6541463B1, “Inhibitors of type 5 and type 3 17β-hydroxysteroid dehydrogenase and methods for their use” (Endorecherche, Inc., priority 1998, dated 2003).
Where two headings read alike, the source gives them in different places.

Tests used:
androgen receptor = target: T1, androgen receptor (Rattus norvegicus, UniProt P15207); assay: Androgen receptor (AR) assay: inhibition of [3H]R1881 binding, prostate cytosol
T1 construct: from tissue; host or cells: ventral prostate cytosol of gonadectomized male Sprague-Dawley rats
T1 sequence (P15207 1-902): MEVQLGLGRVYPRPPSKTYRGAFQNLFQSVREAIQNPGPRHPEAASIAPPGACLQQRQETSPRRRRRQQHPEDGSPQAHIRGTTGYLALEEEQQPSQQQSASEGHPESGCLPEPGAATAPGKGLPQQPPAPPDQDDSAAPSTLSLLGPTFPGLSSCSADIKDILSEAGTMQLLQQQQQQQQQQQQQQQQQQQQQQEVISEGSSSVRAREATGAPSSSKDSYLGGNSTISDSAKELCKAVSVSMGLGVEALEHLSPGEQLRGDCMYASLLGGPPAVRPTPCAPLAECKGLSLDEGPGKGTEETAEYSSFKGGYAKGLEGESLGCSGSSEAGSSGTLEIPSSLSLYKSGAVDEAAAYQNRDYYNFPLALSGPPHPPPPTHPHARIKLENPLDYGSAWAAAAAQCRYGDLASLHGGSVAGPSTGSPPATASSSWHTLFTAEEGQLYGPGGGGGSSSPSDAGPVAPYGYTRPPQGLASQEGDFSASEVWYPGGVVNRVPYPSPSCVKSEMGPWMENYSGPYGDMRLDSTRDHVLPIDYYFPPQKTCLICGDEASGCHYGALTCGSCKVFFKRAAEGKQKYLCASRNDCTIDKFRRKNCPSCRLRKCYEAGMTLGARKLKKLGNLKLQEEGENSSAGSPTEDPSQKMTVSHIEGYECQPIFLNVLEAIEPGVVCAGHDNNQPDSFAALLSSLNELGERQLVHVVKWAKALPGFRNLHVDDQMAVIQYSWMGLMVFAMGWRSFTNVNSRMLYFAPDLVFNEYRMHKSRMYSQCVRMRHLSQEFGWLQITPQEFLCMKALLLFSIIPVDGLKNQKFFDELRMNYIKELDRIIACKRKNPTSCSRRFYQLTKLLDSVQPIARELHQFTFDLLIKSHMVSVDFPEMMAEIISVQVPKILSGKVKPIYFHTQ
Protocol: The manner in which the percentage of inhibition is determined is described in “Other Tests; D-Androgen Receptor (AR) Assays”. Lower numbers are desirable.
(§1) Male Sprague-Dawley rats (Crl: CD(SD)Br) weighing 200-300 g were obtained from Charles-River Inc. (St-Constant, Québec, Canada). The rats were gonadectomized under general anesthesia (Isoflurane) and killed by cervical dislocation 24 hours later. The ventral prostates were rapidly removed, dissected free from adhering tissue and frozen on dry-ice. Prostates were kept at −80° C. until assay.
All subsequent steps were performed at 0-4° C. Prostates were homogenized in 5 vol (wt/vol) of buffer A (25 mM Tris-HCl, 1.5 mM EDTA disodium salt, 10 mM α-monothioglycerol, 10% glycerol, and 10 mM sodium molybdate, pH 7.4), using a Polytron PT-10 homogenizer (Brinkman Instruments, Canada) at a setting of 5 for three periods of 10 sec, with intervals of 10 sec for cooling. The homogenate was then centrifuged at 105,000×g for 60 min in a Beckman L5-65 ultracentrifuge (Fullerton, Calif.).
Androgen binding was measured using the hydroxylapatite assay (HAP). In brief, the radioactive steroid [^3H]R1881 solubilized in ethanol was diluted into buffer A. Aliquots of prostate cytosol preparation (0.1 ml) were then incubated with 8 nM [^3H]R1881 (0.1 ml, ˜200,000 cpm) in the presence or absence of the indicated concentrations of unlabeled compounds (0.1 ml, prepared in buffer A containing 10% ethanol) for 16-18 h at 0-4° C. […] Unbound steroids were separated by incubation for 40 min at 0-4° C. with 0.3 ml HAP prepared in buffer P (50 mM, Tris-HCl, 10 mM KH2PO4, pH 7.4) as follows: 10 g HAP were washed with buffer P until the supernatant reached a pH of 7.4 and then following centrifugation and decantation of the supernatant, 37.5 ml of buffer P were added. After incubation with HAP and 10 minutes of centrifugation at 1,000×g, the pellet was washed 3 times with 1 ml buffer P. Thereafter, the radioactivity was extracted from the pellet by incubation at room temperature for 60 minutes with 1 ml EtOH. After centrifugation, the supernatant was decanted into a scintillation vial and the pellet was extracted again with ethanol.

progesterone receptor = assay: Progesterone receptor assay: inhibition of [3H]R5020 binding, uterine cytosol; set-up: species or system rat
Protocol: The manner in which the percentage of inhibition is determined is described in “Other Tests; E-Progesterone Receptor Assay”. Lower numbers are desirable.
[17α-methyl-^3H]-promegestone (R5020) (84 Ci/mmol) and the corresponding unlabeled compound were purchased from New England Nuclear (Lachine, Québec, Canada). All other chemicals were of analytical grade.
Stock solutions of the unlabeled steroids were kept at 4° C. in ethanol. The desired steroid solutions were then prepared by appropriate dilution in buffer B (10 mM Tris-HCl, 1.5 mM EDTA, 10 mM α-monothioglycerol, pH 7.4) containing 30% ethanol.
as §1, with “Female” for “Male”, “rats” for “rats (Crl: CD(SD)Br)”, “uteri are” for “ventral prostates were”, “Tissues” for “Prostates”, “use.” for “assay.”
All procedures were performed at 4° C. Tissues were pulverized frozen in dry ice with a Thermovac pulverizer. The samples were then homogenized in 10 vol (w/v) of buffer A (25 mM Tris-HCl, 1.5 mM EDTA, 10 mM α-monothioglycerol, 10% glycerol, 10 mM sodium molybdate, pH 7.4) using a Polytron PT-10 homogenizer (Brinkmann Instruments, Canada) at a setting of 5 for two periods of 10 sec, with intervals of 10 sec for cooling. The homogenate was then centrifuged at 105,000×g for 90 min. The supernatant was used immediately for assay.
Progesterone binding was measured using the dextran-coated charcoal adsorption technique. […] Each concentration was done in triplicate. Assay was ended with 300 μl of DCC (1% Norit A and 0.1% Dextran T-70 in Buffer B). After 10 min of incubation, tubes were centrifuged at 2,000×g for 10 min. and decanted in vials with 6 ml of BCS liquid scintillation (New England Nuclear, Dupont). The radioactivity was measured in a Beckman counter at a counting efficiency of 35%.

Row | Compound | inhibition at 1 µM (androgen receptor; Table 4′, E^−6) | inhibition at 0.01 µM (androgen receptor; Table 4′, E^−8) | % Inhibition Progesterone Receptor E^−6 (progesterone receptor; Table 4′, E^−6) | % Inhibition Progesterone Receptor E^−8 (progesterone receptor; Table 4′, E^−8) | other results
1 | CC(=O)O[C@]1(C)C(=O)CCC2C3C=C(C)C4=CC(=O)C=C[C@]4(C)C3CC[C@@]21C (some centres unmarked) [CS-237] | – | – | – | – | inhibition at 1 µM (androgen receptor; read-out: % Inhibition Androgen Receptor E^−6): 11%; inhibition at 0.01 µM (androgen receptor; read-out: % Inhibition Androgen Receptor E^−8): 0%; % Inhibition Progesterone Receptor E^−6 (progesterone receptor; E^−6): 0%; % Inhibition Progesterone Receptor E^−8 (progesterone receptor; E^−8): 0%
2 | CN(C)C(=O)c1ccc2c(c1)CCC1C2CCC2(C)C1CCC21CCC(C)(C)C(=O)O1 (centres unmarked) [EM-1403] | 0% | 0% | 0% | 0% | –
3 | COCCOc1cc2c(cc1Cl)C1CCC3(C)C(CCC34CCC(C)(C)C(=O)O4)C1CC2 (centres unmarked) [EM-1371-CS] | 1% | 0% | 3% | 0% | –
4 | COCCOc1cc2c(cc1C(F)(F)F)[C@H]1CC[C@@]3(C)[C@@H](CC[C@@]34CCC(C)(C)C(=O)O4)[C@@H]1CC2 [EM-1438, 3-(2′-Methoxyethoxy)-2-trifluoromethyl-1,3,5(10)-estratrien-17(R)-spiro-2′-(5′,5′-dimethyl-6′-oxo)tetrahydropyran] | – | – | 0% | 0% | % Inhibition Androgen Receptor E^−6 (androgen receptor; Table 4′, E^−6): 10%; % Inhibition Androgen Receptor E^−8 (androgen receptor; Table 4′, E^−8): 0%
5 | COCCOc1cc2c(cc1C(=O)OC)C1CC[C@@]3(C)C(CC[C@@]34CCC(C)(C)C(=O)O4)C1CC2 (stereo partly drawn) [EM-1402-CS, 2-Carbomethoxy-3-(2″-methoxyethyloxy)-1,3,5(10)-estratrien 17(R)-spiro-2′-(5′,5′-dimethyl-6′-oxo)tetrahydropyran] | 0% | 0% | 4% | 2% | –
6 | CC1(C)CCC2(CCC3C4CCc5ccccc5C4CCC32C)OC1=O (centres unmarked) [CS-224] | 0% | 0% | 5% | 2% | –
7 | CN1C(=O)C=C[C@]2(C)C3CC[C@@]4(C)C(CC[C@@]45CCCC(=O)O5)C3CCC12 (some centres unmarked) [EM-1122-CS] | – | – | – | – | inhibition at 1 µM (androgen receptor; Table 5 column 13, E^−6): 8%; inhibition at 0.01 µM (androgen receptor; Table 5 column 13, E^−8): 1%; % Inhibition Progesterone Receptor E^−6 (progesterone receptor; Table 5 column 14, E^−6): 3%; % Inhibition Progesterone Receptor E^−8 (progesterone receptor; Table 5 column 14, E^−8): 0%
8 | CCCC(=O)OC1(C(C)=O)CCC2C3C=C(C)C4=CC(=O)CC(C)C4(C)C3CCC21C (centres unmarked) [CS-245] | – | – | – | – | % Inhibition Androgen Receptor (androgen receptor; E^−6): 71%; % Inhibition Androgen Receptor (androgen receptor; E^−8): 5%; % Inhibition Progesterone Receptor (progesterone receptor; E^−6): 26%; % Inhibition Progesterone Receptor (progesterone receptor; E^−8): 0%
9 | CC1(C)CCC2(CCC3C4CCc5cc(OCCN6CCCCC6)ccc5C4CCC32C)OC1=O [EM-1390-CS, 3-(N-piperidyl-ethyl)-1,3,5(10)-estratrien-17(R)-spiro-2′-(5′,5′-dimethyl-6′-oxo)-tetrahydropyran] | 0% | 0% | 2% | 0% | –
10 | COc1ccc2c(c1)C(=O)CC1C3CCC4(CCC(C)(C)C(=O)O4)C3(C)CCC21O (centres unmarked) [EM-1386] | 0% | 0% | 0% | 0% | –
11 | C[C@]12CCC(=O)C=C1C=C[C@@H]1[C@@H]2CC[C@]2(C)C(=O)C3(CC4CC4C3)C[C@@H]12 (some centres unmarked) [EM-1299, 4,6-Androstadien-3,17-dione-16-spirobicyclo[3′.1′.0′]-hexane] | – | – | – | – | % Inhibition Androgen Receptor E^−6 (androgen receptor; E^−6): 3%; % Inhibition Androgen Receptor E^−8 (androgen receptor; E^−8): 1%; % Inhibition Progesterone Receptor E^−6 (progesterone receptor; E^−6): 0%; % Inhibition Progesterone Receptor E^−8 (progesterone receptor; E^−8): 0%
